Laboratory results from article PMC9217908, “Screening of commonly prescribed drugs for effects on the CAT1-mediated transport of L-arginine and arginine derivatives” (Amino Acids, 2022).
Like-named read-outs stand apart in the source and are kept apart here.

Columns and labels:
Assay in all cases: cell-based
[1] = target: T1, CAT1 (cationic amino acid transporter 1, CAT1/SLC7A1) (Homo sapiens, UniProt P30825); design: species or system HEK-CAT1 (HEK293 stably transfected); Inhibition of net CAT1-mediated [3H]-L-arginine (100 uM) uptake, 5 min, scintillation counting, vector control subtracted; conditions: HEK293, L-arginine 100 uM as substrate; for inhibition at 20 µM: read-out: % Inhibition of L-arginine uptake at 20 µM; for inhibition at 200 µM: read-out: % Inhibition of L-arginine uptake at 200 µM
T1 construct: full-length human transporter stably transfected in HEK cells (HEK-CAT1); net uptake against HEK-VC vector control cells
Description: (§1) Uptake and inhibition assays using HEK-CAT1 and HEK-VC cells and L-arginine, L-homoarginine, and ADMA as substrates were performed using the protocol described (Strobel et al. [2012]; Chafai et al. [2017]). Briefly, after incubation, the supernatant was replaced with transport buffer containing [^3H]- L-arginine for 5 min and 2.5 min for medium containing [^3H]-L-homoarginine or [^3H]-ADMA with or without the test compound. The reference drugs were screened at concentrations of 20 µM (Figs. 1A, 2A, and 3A) and 200 µM (Figs. 1B, 2B, and 3B). […] The net uptake was determined by subtracting the total amount taken up by control cells from the amount taken up by CAT1-expressing cells, which was expressed as a percentage of the amount taken up by the control. To determine the inhibitory effects of the drugs on CAT1-mediated transport of L-arginine, L-homoarginine, or ADMA, the control was measured in the absence of the potential inhibitor. The value for the percent inhibition was calculated as: Inhibition (%) = 100 – (V/V0 ^* 100), where V and V0 are the net uptake rates (uptake into HEK-CAT1 cells—uptake into HEK-VC cells) with and without test drugs, respectively. […] Each bar represents the effect of one compound on CAT1-mediated L-arginine (100 μM) uptake as percent inhibition. Data were obtained from at least two independent experiments performed in triplicate (n = 6–9) and each test data from the independent experiment were normalized to the respective control data to get the value of percent inhibition. Negative inhibition values indicate stimulated CAT1-mediated uptake. Data were analyzed using one-way ANOVA and Dunnett’s multiple comparison test with p < 0.05. Bars showing a statistically significant inhibition or transport stimulation are shaded in black

[2] = target: T1, CAT1 (cationic amino acid transporter 1, CAT1/SLC7A1); design: species or system HEK-CAT1 (HEK293 stably transfected); Inhibition of net CAT1-mediated [3H]-L-homoarginine (1 uM) uptake, 2.5 min, scintillation counting, vector control subtracted; conditions: HEK293, L-homoarginine 1 uM as substrate; for inhibition at 20 µM: read-out: % Inhibition of L-homoarginine uptake at 20 µM; for inhibition at 200 µM: read-out: % Inhibition of L-homoarginine uptake at 200 µM
Description: as §1, with “L-homoarginine (1” for “L-arginine (100”

[3] = target: T1, CAT1 (cationic amino acid transporter 1, CAT1/SLC7A1); design: species or system HEK-CAT1 (HEK293 stably transfected); Inhibition of net CAT1-mediated [3H]-ADMA (1 uM) uptake, 2.5 min, scintillation counting, vector control subtracted; conditions: HEK293, ADMA 1 uM as substrate; for inhibition at 20 µM: read-out: % Inhibition of ADMA uptake at 20 µM; for inhibition at 200 µM: read-out: % Inhibition of ADMA uptake at 200 µM
Description: as §1, with “ADMA (1” for “L-arginine (100”

T1 sequence (P30825 whole entry): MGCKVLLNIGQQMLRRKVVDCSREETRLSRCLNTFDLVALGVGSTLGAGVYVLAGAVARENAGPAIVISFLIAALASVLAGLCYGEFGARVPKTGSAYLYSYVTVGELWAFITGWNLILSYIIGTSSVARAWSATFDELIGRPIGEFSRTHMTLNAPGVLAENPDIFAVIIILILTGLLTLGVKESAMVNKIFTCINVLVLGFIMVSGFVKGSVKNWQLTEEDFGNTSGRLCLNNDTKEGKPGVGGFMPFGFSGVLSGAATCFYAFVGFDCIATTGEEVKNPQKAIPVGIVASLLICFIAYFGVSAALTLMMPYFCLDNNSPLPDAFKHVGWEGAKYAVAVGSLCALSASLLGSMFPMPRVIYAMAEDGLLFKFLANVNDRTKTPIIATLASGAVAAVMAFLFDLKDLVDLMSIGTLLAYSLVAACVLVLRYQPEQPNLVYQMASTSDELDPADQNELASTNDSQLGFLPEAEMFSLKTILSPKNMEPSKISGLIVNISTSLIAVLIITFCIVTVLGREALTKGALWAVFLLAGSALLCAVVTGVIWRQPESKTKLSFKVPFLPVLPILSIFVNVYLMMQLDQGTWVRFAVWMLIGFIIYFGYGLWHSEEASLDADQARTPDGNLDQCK

Row | SMILES | inhibition at 20 µM [1] [%] | inhibition at 200 µM [1] [%] | inhibition at 20 µM [2] [%] | inhibition at 200 µM [2] [%] | inhibition at 20 µM [3] [%] | inhibition at 200 µM [3] [%]
1 | O[C@@H](CNC[C@H](O)[C@H]1CCc2cc(F)ccc2O1)[C@@H]1CCc2cc(F)ccc2O1 (racemic) [Nebivolol] | 5.2 ± 3 | 1.3 ± 2.9 | -4.6 ± 1.9 | 0.3 ± 3.1 | -2.9 ± 1.7 | -6.6 ± 15.4
2 | Nc1nc(NC2CC2)c2ncn([C@H]3C=C[C@@H](CO)C3)c2n1 [Abacavir] | -0.9 ± 1.81 | -12.4 ± 6 | -3.1 ± 2 | -9.8 ± 1.7 | -4.3 ± 2.2 | -78.1 ± 1.9
3 | CC(=O)Nc1ccc(O)cc1 [Acetaminophen] | 6.6 ± 4.9 | 2.4 ± 1.6 | 8.1 ± 4.7 | 4.4 ± 0.7 | -14.7 ± 3.8 | -3.9 ± 3.4
4 | CC(=O)Nc1nnc(S(N)(=O)=O)s1 [Acetazolamide] | -12.8 ± 12.9 | 8.9 ± 3.9 | -10.9 ± 11.9 | 8.8 ± 2.1 | -1.5 ± 0.9 | 9.7 ± 1.9
5 | CC(=O)N[C@@H](CS)C(=O)O [Acetylcysteine] | -6.6 ± 3.7 | 4.6 ± 3.3 | -9 ± 1.5 | 7.5 ± 1.3 | 3.2 ± 3.2 | -6.1 ± 4.3
6 | Oc1ncnc2[nH]ncc12 [Allopurinol] | 5 ± 16.4 | 14.1 ± 9.6 | – | -2.6 ± 1.6 | 16.9 ± 2.6 | 2 ± 7
7 | Cc1nnc2n1-c1ccc(Cl)cc1C(c1ccccc1)=NC2 [Alprazolam] | -3.9 ± 5.3 | 8 ± 2.7 | -4.3 ± 5.2 | 9.6 ± 1 | 5.8 ± 3.8 | 4.1 ± 9.5
8 | NC12CC3CC(CC(C3)C1)C2 [Amantadine] | -14.2 ± 7.4 | -76 ± 4.5 | 11.9 ± 5.6 | -19.7 ± 2.6 | 5.3 ± 3 | -5.7 ± 11.1
9 | N=C(N)NC(=O)c1nc(Cl)c(N)nc1N [Amiloride] | -0.1 ± 9.7 | 10.9 ± 3.9 | 1.5 ± 3.2 | 12.6 ± 2.6 | 1.5 ± 3.2 | -17.1 ± 2.3
10 | CN(C)CCC=C1c2ccccc2CCc2ccccc21 [Amitriptyline] | 35.9 ± 3.6 | 26.9 ± 4.7 | 0.6 ± 1.7 | 29.7 ± 3.2 | 5.6 ± 2.9 | -13.4 ± 3
11 | CCOC(=O)C1=C(COCCN)NC(C)=C(C(=O)OC)C1c1ccccc1Cl (stereo not drawn) [Amlodipine] | -3.9 ± 5.2 | -2.6 ± 3.9 | -9.3 ± 3.3 | -3.9 ± 4.6 | -7.3 ± 1.7 | 4 ± 9.5
12 | CC1(C)S[C@@H]2[C@H](NC(=O)[C@H](N)c3ccc(O)cc3)C(=O)N2[C@H]1C(=O)O [Amoxicillin] | 14.9 ± 2 | 5.9 ± 2.9 | 13.3 ± 1 | 8.8 ± 1.1 | 2.7 ± 5.9 | 10.2 ± 3.2
13 | CC1(C)S[C@@H]2[C@H](NC(=O)[C@H](N)c3ccccc3)C(=O)N2[C@H]1C(=O)O [Ampicillin] | -2.5 ± 2.7 | 6.7 ± 1.4 | -2.5 ± 2.7 | -6.6 ± 3.6 | 20.2 ± 2.8 | -4.1 ± 2.8
14 | Cc1cc(=O)n(-c2ccccc2)n1C [Antipyrine] | -5.1 ± 7.2 | -12.7 ± 2.5 | -8.2 ± 6 | 12.8 ± 1.4 | 1.9 ± 2.5 | -1.2 ± 6.1
15 | CC[C@H]1OC(=O)[C@H](C)[C@@H](O[C@H]2C[C@@](C)(OC)[C@@H](O)[C@H](C)O2)[C@H](C)[C@@H](O[C@@H]2O[C@H](C)C[C@H](N(C)C)[C@H]2O)[C@](C)(O)C[C@@H](C)CN(C)[C@H](C)[C@@H](O)[C@]1(C)O [Azithromycin] | 7 ± 7.2 | 16.7 ± 5.2 | 20.8 ± 3.3 | 26.8 ± 2.3 | 2.8 ± 3.4 | 12.9 ± 3.7
16 | CCOC(=O)[C@H](CCc1ccccc1)N[C@H]1CCc2ccccc2N(CC(=O)O)C1=O [Benazepril] | 1.1 ± 4.5 | 2.7 ± 6 | 1.1 ± 4.5 | 5.8 ± 2.4 | 28.7 ± 4.6 | 3.1 ± 3.8
17 | CCc1oc2ccccc2c1C(=O)c1cc(Br)c(O)c(Br)c1 [Benzbromarone] | -12.4 ± 6.1 | -31.3 ± 4.9 | -10.8 ± 5.3 | -23.2 ± 1.6 | -6.9 ± 4.6 | -13.2 ± 5.9
18 | C[C@]12CC[C@@H]3c4ccc(O)cc4CC[C@H]3[C@@H]1CC[C@@H]2O [Beta estradiol] | 0.3 ± 4.5 | -19.1 ± 7.2 | -0.1 ± 4.2 | -13.7 ± 11.3 | -9.8 ± 7.2 | -32.9 ± 6.4
19 | CC(C)NCC(O)COc1ccc(COCCOC(C)C)cc1 (stereo not drawn) [Bisoprolol] | -13.1 ± 0.7 | -17.2 ± 15.5 | -11.1 ± 1.9 | -14.9 ± 2.5 | -2.8 ± 1.6 | 16.2 ± 4.2
20 | CCC(C)(C)C(=O)O[C@H]1C[C@@H](C)C=C2C=C[C@H](C)[C@H](CC[C@@H]3C[C@@H](O)CC(=O)O3)[C@H]21 [Simvastatin] | -4.1 ± 0.6 | -10.5 ± 3.3 | – | – | -18.1 ± 15 | -4.2 ± 3.5
